Results published in publication PMC4411898, “Impact of kinesin Eg5 inhibition by 3,4-dihydropyrimidin-2(1H)-one derivatives on various breast cancer cell features” (BMC Cancer, 2015).
Read-outs that look alike come from different tables or passages of the source.

Legend:
[1] = test system: Fibroblasts (primary culture from healthy human dental pulp)
Protocol: MCF-7 cell line and primary culture of connective tissue cells were provided by the Laboratory of Morphology, University of Brasília (Brasília, BR). MDA-MB-231 cells were purchased from Rio de Janeiro Cell Bank (RJCB - Rio de Janeiro, BR). Cell line characterization and authentication was conducted by RJCB using short tandem repeat profiling. Primary culture cells were taken from healthy human dental pulp predominantly consisting of fibroblasts and were used as normal control cells. MCF-7 cells and fibroblasts were grown in complete DMEM and maintained at 37°C with 5% CO2. MDA-MB-231 cells were grown in Leibovitz L15 medium at 37°C without CO2. Culture media were supplemented with 10% fetal bovine serum and 25 μg/mL of gentamicin.
Cytotoxicity was determined using 3-(4,5-dimethylthiazol-2-yl)-2,5-diphenylterazolium bromide (MTT) according to the manufacturer’s instructions. Absorbance readings were measured by a spectrophotometer. Cell viability was normalized to control (vehicle only).

MCF-7 cells [2] = assay: Morphological alterations under inverted light microscope, MCF-7; assay type: cell-based, human; conditions: 72 h, maximum non-cytotoxic concentration to normal cells
Protocol: Figure 2 DHPM derivatives cause severe morphological alterations on breast cancer cells. MCF-7 and MDA-MB-231 cells were treated with the maximum non-cytotoxic concentration to normal cells for 72 h and morphological alterations analyzed under an inverted light microscope. Cells with elongated morphology, adherent to the surface and normal size are shown by arrows. Cells with size reduction, absence of focal adhesion points, rounded morphology and detached from the surface where they had been seeded are shown by arrowheads.

MCF-7 cells [3] = assay: MTT cell viability assay, MCF-7; assay type: cell-based, human; conditions: for IC50: Homo sapiens, read-out: IC50 MCF-7
Protocol: (§1) Absorbance readings were measured by a spectrophotometer. Cell viability was normalized to control (vehicle only).

MCF-7 cells [4] = assay: Cell cycle analysis (PI), MCF-7; assay type: cell-based, human; conditions: 4m 1 mM, 4bt 0.8 mM, 4p 0.4 mM, 4bc 1.0 mM, 4x 0.8 mM
Protocol: For proliferation assays, cells were treated with IC50 concentrations of each compound. Adherent and floating cells were harvested at the same tube and pelleted by centrifugation at 300 g for 5 minutes and stained. Data acquisition of these two fractions put together was performed on a FACSCalibur flow cytometer using CellQuest software and analysed using the FloJo Software. Control and DHPM-treated cells were harvested at 24, 48 and 72 h, resuspended in ice-cold PBS and fixed with 70% ethanol on ice. Cells were then washed with PBS, harvested and incubated with propidium iodide solution (0.1% Triton X-100, 10 μg/mL propidium iodide, 100 μg/mL DNase free RNase) for 10 min at 37°C. For analysis of cell populations in each cell cycle phase, the sub-G1 picks were excluded and the plots were generated by cell cycle platform data analysis by the FlowJo Software.

MCF-7 cells [5] = assay: Apoptosis and necrosis assay (Annexin-V/PI flow cytometry), MCF-7; assay type: cell-based, human; conditions: 72 h; 4m 1.0 mM, 4bt 0.8 mM, 4p 0.4 mM, 4bc 1.0 mM, 4x 0.8 mM
Protocol: (§2) For proliferation assays, cells were treated with IC50 concentrations of each compound. Adherent and floating cells were harvested at the same tube and pelleted by centrifugation at 300 g for 5 minutes and stained. Data acquisition of these two fractions put together was performed on a FACSCalibur flow cytometer using CellQuest software and analysed using the FloJo Software. Untreated control cells and DHPMs-treated for 72 h cell samples were stained with Annexin-V-FITC or Annexin-V-Alexa Fluor® 680 and propidium iodide according to the manufacturer’s instructions.

MCF-7 cells [6] = assay: α-tubulin immunostaining, spindle formation; assay type: cell-based, human; conditions: for Monoastral Spindle (%) 24 h / Bipolar Spindle (%) 24 h / Bipolar Spindle (%) 48 h / Monoastral Spindle (%) 48 h: n = 300 dividing cells; for Monoastral Spindle (%) 24 h: monastrol 0.1 mM; for Bipolar Spindle (%) 24 h / Bipolar Spindle (%) 48 h / Monoastral Spindle (%) 48 h: concentrations as E14; for Bipolar Spindle (%) 48 h / Monoastral Spindle (%) 48 h: MCF-7, 48 h
Protocol: Aliquots of 7 × 10^4 MCF-7 cells were seeded onto 12 mm round glass coverslips placed in the base of each well of a 24-well plate. After adhesion, cells were treated for 24 and 48 h with the pre-selected compounds at their maximum non-cytotoxic concentrations to normal cells or incubated with culture medium only for the same duration (negative control). Cells were washed with PBS, fixed with 3.7% formaldehyde, permeabilized with 0.1% Triton X-100 and blocked in PBS supplemented with 1% skimmed milk, 2.5% bovine serum albumin (BSA) and 8% fetal bovine serum (FBS) at room temperature. Cells were incubated overnight with mouse anti-α-tubulin antibody (1:500) at 4°C, followed by incubation with a secondary antibody: Alexa Fluor 488 rabbit anti-mouse IgG (1:400), for 1 hour at 37°C. Nuclei were stained with 300 nM DAPI. The coverslips were mounted with ProLong Gold Antifade and specimens observed under a laser scanning confocal microscope.
Table S1. Quantification of monopolar spindles occurred as a result of treatment with DHPM derivatives. MCF-7 control cells or cells treated for 24 or 48 h with 4m (1 mM), […]
antibody. The percentage of dividing cells showing presence of monoastral and bipolar spinles formation determined (n = 300).
Experimental Group Monoastral Spindle (%) Bipolar Spindle (%)

MCF-7 cells [7] = assay: CD44+/CD24- expression analysis, MCF-7; assay type: cell-based, human; conditions: 24 h; for CD44-/CD24- subpopulation, MCF-7 (mean ± SEM): 4m 1.0 mM, 4bt 0.8 mM, 4p 0.4 mM, 4bc 1.0 mM, 4x 0.8 mM, monastrol 1.0 mM; for CD44+/CD24+ subpopulation, MCF-7 (mean ± SEM) / CD44-/CD24+ subpopulation, MCF-7 (mean ± SEM) / CD44+/CD24- subpopulation, MCF-7 (mean ± SEM): concentrations as E28; for CD44+/CD24- subpopulation, MCF-7 (mean ± SEM): control 0.38 ± 0.18
Protocol: (§3) For proliferation assays, cells were treated with IC50 concentrations of each compound. Adherent and floating cells were harvested at the same tube and pelleted by centrifugation at 300 g for 5 minutes and stained. Data acquisition of these two fractions put together was performed on a FACSCalibur flow cytometer using CellQuest software and analysed using the FloJo Software. Expression level of CD44 and CD24 in treated and control MCF-7 or MDA-MB-231 cells was measured after 24 h of treatment.

MDA-MB-231 cells [8] = assay: MTT cell viability assay, MDA-MB-231; assay type: cell-based, human; conditions: for IC50: Homo sapiens, read-out: IC50 MDA-MB-231
Protocol: as §1

HUVEC cells = assay: HUVEC tube formation assay; assay type: cell-based, human; conditions: 11 h; 30 μM, IC50 or 300 μM, mainly 300 μM
Protocol: The anti-angiogenic potential of DHPMs was tested using an in vitro Angiogenesis Assay Kit according to the manufacturer’s instructions. […] These plates were incubated for 11 hours at 37°C, in 5% CO2. Wells were subsequently photographed using an inverted light microscope at 20x magnification and tube formation analyzed. Seven fields per group of 3 independent experiments were quantified by pattern recognition according to manufacturer’s instructions.

MDA-MB-231 cells [9] = assay: Apoptosis and necrosis assay (Annexin-V/PI flow cytometry), MDA-MB-231; assay type: cell-based, human; conditions: 72 h; 4m 1.0 mM, 4bt 0.8 mM, 4p 0.4 mM, 4bc 1.0 mM, 4x 0.8 mM
Protocol: as §2

MDA-MB-231 cells [10] = assay: CD44+/CD24- expression analysis, MDA-MB-231; assay type: cell-based, human; conditions: 24 h; for CD44-/CD24- subpopulation, MDA-MB-231 (mean ± SEM): 4m 1.0 mM, 4bt 0.8 mM, 4p 0.4 mM, 4bc 1.0 mM, 4x 0.8 mM, monastrol 1.0 mM; for CD44+/CD24+ subpopulation, MDA-MB-231 (mean ± SEM): control 1.507 ± 0.47
Protocol: as §3

[11] = all concentrations tested 100 μM – 1.00 mM, 72 h
[12] = MCF-7, 24 h, 4m 1.0 mM, 4bt 0.8 mM, 4p 0.4 mM, 4bc 1.0 mM, 4x 0.8 mM

Row | Structure (SMILES) | Monoastral Spindle (%) 24 h (MCF-7 cells [6]; [12]) [%] | Bipolar Spindle (%) 24 h (MCF-7 cells [6]; MCF-7, 24 h) [%] | Bipolar Spindle (%) 48 h (MCF-7 cells [6]) [%] | Monoastral Spindle (%) 48 h (MCF-7 cells [6]) [%] | CD44-/CD24- subpopulation, MCF-7 (mean ± SEM) (MCF-7 cells [7]) [%] | CD44+/CD24+ subpopulation, MCF-7 (mean ± SEM) (MCF-7 cells [7]) [%] | CD44-/CD24+ subpopulation, MCF-7 (mean ± SEM) (MCF-7 cells [7]) [%] | CD44+/CD24- subpopulation, MCF-7 (mean ± SEM) (MCF-7 cells [7]) [%] | CD44-/CD24- subpopulation, MDA-MB-231 (mean ± SEM) (MDA-MB-231 cells [10]) [%] | CD44-/CD24+ subpopulation, MDA-MB-231 (mean ± SEM) (MDA-MB-231 cells [10]; concentrations as E32) [%] | CD44+/CD24+ subpopulation, MDA-MB-231 (mean ± SEM) (MDA-MB-231 cells [10]; concentrations as E32) [%] | other results
1 | CC1(C)CC(=O)C2=C(C1)NC(=S)NC2c1cccc(O)c1 (stereo not shown) [Compound 4bt, Dimethylenastron] | 99.35 | 0.65 | 20 | 80 | 3.09 ± 0.46 | 61.97 ± 19.91 | 34.92 ± 19.45 | 0.005 ± 0.005 | 0.01 ± 0.00 | 0.0 ± 0.0 | 52.14 ± 10.60 | Maximum non-cytotoxic concentration to normal cells ([1]; fibroblasts, 72 h treatment, MTT): 0.8 mM; Morphological alterations, MCF-7 (MCF-7 cells [2]): produced the same results; IC50 (MCF-7 cells [3]; MCF7, 72 h): 127 µM; Effect on cell viability, MCF-7 (MCF-7 cells [3]; [11]): significant decrease in cell viability; Cell cycle effect, MCF-7, 48 h (MCF-7 cells [4]): decrease of cells in G2/M and an increase of cells in S phase; Cell death by apoptosis, % of MCF-7 cell population (MCF-7 cells [5]): 39%; Mitotic spindle / microtubule organization (α-tubulin immunostaining) (MCF-7 cells [6]; [12]): caused monoastral spindle formation; IC50 (MDA-MB-231 cells [8]; MDA-MB-231, 72 h): 17.9 µM; Effect on cell viability, MDA-MB-231 (MDA-MB-231 cells [8]; [11]): significant decrease in cell viability; HUVEC tube formation (pattern recognition / morphology) (HUVEC cells): more pronounced anti-angiogenic morphological aspect; Cell death by apoptosis, % of MDA-MB-231 cell population (MDA-MB-231 cells [9]): 83%
2 | CCOC(=O)C1=C(C)NC(=S)NC1c1cccc(O)c1 (stereo not shown) [Monastrol, reference compound] | 97.66 | 2.33 | 8 | 92 | 1.64 ± 0.43 | 29.53 ± 5.30 | 68.56 ± 5.93 | 0.2400 ± 0.20 | 0.00 ± 0.003 | 0.007 ± 0.003 | 15.56 ± 6.96 | Maximum non-cytotoxic concentration to normal cells ([1]; human, 72 h): 1.0 mM; IC50 (MCF-7 cells [3]; MCF7, 72 h treatment, MTT): 110 µM; IC50 (MDA-MB-231 cells [8]; MDA-MB-231, 72 h treatment, MTT): 114 µM; CD44+/CD24- subpopulation, MDA-MB-231 (mean ± SEM) (MDA-MB-231 cells [10]; concentrations as E32, untreated control 98.45 ± 0.47): 84.41 ± 6.97%
